# Laboratory results: article PMC9502272, “A Metabolomics Approach for Predicting OATP1B-Type Transporter-Mediated Drug–Drug Interaction Liabilities” (Pharmaceutics, 2022)
# Structures can show the parent of a compound that is named as a salt.
# Target: T1, Oatp1b2 (Mus musculus, UniProt Q9JJL3)
# T1 sequence (Q9JJL3 1-689): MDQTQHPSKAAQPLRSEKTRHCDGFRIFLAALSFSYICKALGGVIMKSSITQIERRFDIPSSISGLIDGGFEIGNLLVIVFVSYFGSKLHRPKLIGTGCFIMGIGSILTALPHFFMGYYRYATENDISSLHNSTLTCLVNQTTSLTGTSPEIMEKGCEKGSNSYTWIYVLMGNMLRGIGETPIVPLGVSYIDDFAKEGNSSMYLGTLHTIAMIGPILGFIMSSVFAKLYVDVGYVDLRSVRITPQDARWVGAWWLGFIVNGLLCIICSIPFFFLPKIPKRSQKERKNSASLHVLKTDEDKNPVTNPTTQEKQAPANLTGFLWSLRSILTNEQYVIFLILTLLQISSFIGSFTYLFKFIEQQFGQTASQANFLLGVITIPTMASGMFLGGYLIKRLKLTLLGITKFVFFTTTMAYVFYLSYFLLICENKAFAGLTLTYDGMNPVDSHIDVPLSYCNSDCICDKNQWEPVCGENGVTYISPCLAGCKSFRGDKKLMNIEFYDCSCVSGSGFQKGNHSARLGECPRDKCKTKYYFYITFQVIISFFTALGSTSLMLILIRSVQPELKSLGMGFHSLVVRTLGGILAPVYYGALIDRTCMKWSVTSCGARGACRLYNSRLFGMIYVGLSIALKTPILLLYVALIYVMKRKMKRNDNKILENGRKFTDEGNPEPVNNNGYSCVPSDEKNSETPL
# Test: Untargeted metabolomics of plasma from untreated wild-type and Oatp1b2(−/−) mice
# Settings: for Fold of Change KO/WT: plasma of untreated Oatp1b2-deficient (KO) vs wild-type (WT) mice, semi-quantitative, positive = higher in KO, n = 6 per group; for Mean value KO: plasma of untreated Oatp1b2-deficient mice; for Mean value KO / Mean value WT: raw area counts rescaled to median = 1; for Mean value WT: plasma of untreated wild-type mice
# Experimental: For all experiments, age- and sex-matched mice (8–12 weeks old) were used. […] Mice with a deficiency of Oatp1b2 (Oatp1b2(−/−) mice), the single murine orthologue of OATP1B1 and OATP1B3 in humans, on a DBA/1LacJ background were kindly provided by Drs. Richard B. Kim (Western University, London, Ontario, Canada) and Jeffrey L. Stock (Pfizer, Groton, CT, USA).
# Plasma samples from untreated wild-type mice and Oatp1b2(−/−) mice were analyzed for structurally named and unknown molecules using a non-targeted semi-quantitative liquid chromatography-tandem mass spectrometry (LC-MS/MS) and gas chromatography-mass spectrometry platforms (Metabolon, Durham, NC, USA). Compounds were identified by comparison with library entries of purified standards or recurrent unknown entities.
Molecule,Fold of Change KO/WT,Mean value KO,Mean value WT
pregnenediol disulfate (C21H34O8S2),2.14,1.16,.540
C[C@H](CCC(=O)O)[C@H]1CC[C@H]2[C@@H]3CC[C@@H]4C[C@H](O)CC[C@]4(C)[C@H]3C[C@H](OS(=O)(=O)O)[C@]12C [deoxycholic acid 12-sulfate],1.25,1.06,.851
C=Cc1ccc(OS(=O)(=O)O)cc1 [4-vinylphenol sulfate],1.55,1.32,.847
O=C(O)CNC(=O)/C=C/c1ccccc1 [cinnamoylglycine],1.99,1.54,.776
tauroursodeoxycholic acid sulfate (2),2.18,1.12,.513
CC(=O)N[C@@H](CC(=O)c1ccccc1N)C(=O)O [N-acetylkynurenine (2)],1.41,1.17,.827
C[N+](C)(C)CC(CC(=O)[O-])OC(=O)CCCCCCCCCCCCCCCCC(=O)O (stereo not drawn) [octadecanedioylcarnitine (C18-DC)],1.16,1.00,.860
CCCCCCCC(=O)O[C@H](CC(=O)O)C[N+](C)(C)C [octanoylcarnitine (C8)],1.62,1.47,.910
Cc1c(C)c2c(c(C)c1O)CC[C@@](C)(CCC[C@H](C)CCC[C@H](C)CCCC(C)C)O2 [α-tocopherol],2.03,1.44,.707
CCCCC/C=C\C/C=C\CCCCCCCC(=O)O[C@H](CC(=O)[O-])C[N+](C)(C)C [linoleoylcarnitine (C18:2)],1.62,1.36,.838
CC(C)CCC[C@@H](C)[C@H]1CC[C@H]2[C@@H]3CC=C4C[C@@H](OS(=O)(=O)O)CC[C@]4(C)[C@H]3CC[C@]12C [cholesterol sulfate],1.23,1.08,.875
C[N+](C)(C)CCOP(=O)([O-])OC[C@H](O)CO [glycerophosphorylcholine (GPC)],1.34,1.12,.836
CCCCCCCCCCCCCCCC(=O)OC[C@@H](O)COP(=O)([O-])OCC[N+](C)(C)C [1-palmitoyl-GPC (16:0)],1.29,1.12,.868
CCCCC/C=C\C/C=C\C/C=C\C/C=C\CCCC(=O)OC[C@@H](O)COP(=O)(O)OCCN [1-arachidonoyl-GPE (20:4n6)],1.49,1.20,.803
CCCCCCCCCCCCCC(=O)O[C@H](CC(=O)[O-])C[N+](C)(C)C [myristoylcarnitine (C14)],1.39,1.26,.904
CCCCCCCC/C=C\CCCCCCCC(=O)O[C@H](CC(=O)[O-])C[N+](C)(C)C [oleoylcarnitine (C18:1)],1.56,1.40,.900
CCCCCCCC/C=C\CCCCCCCC(=O)OCC(O)COP(=O)(O)OCC(O)CO (stereo not drawn) [1-oleoyl-GPG (18:1)],8.19,1.80,.219
"CCCCCCCCCCCCCCCC(=O)OC[C@H](COP(=O)([O-])OCC[N+](C)(C)C)OC(=O)CCCCCCCCCCCCCCC [1,2-dipalmitoyl-GPC (16:0/16:0)]",1.31,1.18,.901
CCCCCC/C=C\CCCCCCCC(=O)O[C@H](CO)COP(=O)([O-])OCC[N+](C)(C)C [2-palmitoleoyl-GPC (16:1)],1.95,1.36,.696
CCCCC(=O)NCC(=O)O [valerylglycine],1.53,1.28,.838
octadecenedioate (C18:1-DC),2.66,1.45,.544
O=C(O)CCCCCCCCCC(=O)O [undecanedioate (C11-DC)],3.00,1.96,.654

# More lines, now with the values ahead:
Fold of Change KO/WT,Mean value KO,Mean value WT,Molecule
1.46,1.24,.850,O=C(O)CC[C@H](NC(=O)Cc1ccccc1)C(=O)O [phenylacetylglutamate]
3.57,2.09,.585,C[C@H](CCC(=O)O)[C@H]1CC[C@H]2[C@@H]3[C@H](O)C[C@@H]4C[C@H](O)CC[C@]4(C)[C@H]3CC[C@]12C [chenodeoxycholate]
1.41,1.17,.826,CCO[C@@H]1O[C@H](CO)[C@@H](O)[C@H](O)[C@H]1O [ethyl beta-glucopyranoside]
2.29,1.80,.787,CC(C)CC(O)C(=O)O (stereo not drawn) [alpha-hydroxyisocaproate]
5.25,1.48,.282,"C=CC1=C(C)/C(=C/c2[nH]c(Cc3[nH]c(/C=C4\NC(=O)C(C)=C4C=C)c(C)c3CCC(=O)O)c(CCC(=O)O)c2C)NC1=O [bilirubin (Z,Z)]"
1.52,1.32,.868,CCCCCCC(=O)NCC(=O)O [heptanoyl glycine]
3.94,2.14,.543,dodecenedioate (C12:1-DC)
2.01,1.37,.681,CCCCC/C=C\C/C=C\C/C=C\C/C=C\CCCC(=O)O[C@H](COC(=O)CCCCCCC/C=C\CCCCCCCC)COP(=O)(O)OC1C(O)C(O)C(O)C(O)C1O (stereo partly drawn) [1-oleoyl-2-arachidonoyl-GPI (18:1/20:4)]
4.16,1.76,.423,CCCCCCCCCCCCCCCCCC(=O)OC[C@@H](O)COP(=O)(O)OCC(O)CO (stereo partly drawn) [1-stearoyl-GPG (18:0)]
1.83,1.56,.852,Cc1cn([C@H]2C[C@H](O)[C@@H](CO)O2)c(=O)nc1N [5-methyl-2'-deoxycytidine]
1.40,1.18,.840,CCCCCCCCCCCCCCCC(N)=O [palmitamide (16:0)]
1.86,1.46,.784,CC/C=C\C/C=C\C/C=C\CCCCCCCC(=O)O[C@H](COC(=O)CCCCCCC/C=C\CCCCCC)COP(=O)([O-])OCC[N+](C)(C)C [1-palmitoleoyl-2-linolenoyl-GPC (16:1/18:3)]
1.44,1.30,.902,O=C(O)CCCCCCCCCCCCCCCCCC(=O)O [nonadecanedioate (C19-DC)]
1.37,1.29,.939,heptadecenamide (17:1)
3.71,1.96,.529,CCCCCC=CCC=CCCCCCCCC(=O)OCC(O)COP(=O)(O)OCC(O)CO (stereo not drawn) [1-linoleoyl-GPG (18:2)]
2.07,1.49,.719,OC[C@H]1O[C@@H](n2cnc3c(O)ncnc32)[C@H](O)[C@@H]1O [inosine]
1.90,1.35,.709,equol glucuronide
1.51,1.20,.797,O=C1Cc2ccccc2N1 [indolin-2-one]
2.36,1.41,.595,CCCCC/C=C\C/C=C\CCCCCCCC(=O)OC[C@@H](O)COP(=O)(O)O [1-linoleoyl-GPA (18:2)]
1.75,1.37,.785,CCCCC/C=C\C/C=C\CCCCCCCCCC(=O)OC(CC(=O)[O-])C[N+](C)(C)C (stereo not drawn) [dihomo-linoleoylcarnitine (C20:2)]
3.45,2.06,.597,"C[N+](C)(C)CCCCC(=O)[O-] [N,N,N-trimethyl-5-aminovalerate]"
1.32,1.18,.895,CCCCCCCC/C=C\CCCCCCCC(=O)O[C@H](CO/C=C\CCCCCCCCCCCCCC)COP(=O)(O)OCCN [1-(1-enyl-palmitoyl)-2-oleoyl-GPE (P-16:0/18:1)]
